Values of other authors in paper PMC6377828 (Clinical cancer research : an official journal of the …, 2018).
Like-named read-outs stand apart in the source and are kept apart here.

Tested on: αvβ6-expressing xenograft tumor
Details: murine xenograft models

[^18F]FBA-A20FMDV2
tumor uptake (1 h): 0.66 % ID/g | tumor uptake (4 h): 0.06 % ID/g
